# Measured values: US10821079B2, “PKC activators and combinations thereof” (Cognitive Research Enterprises, Inc., priority 2011, dated 2020)
# Experiments:
# PKC-ε = PKC-ε mRNA by RT-PCR in RA / Bryostatin-1 treated cells; assay type: cell-based, human
# Procedure: RNA was isolated from the cells using Trizol reagent (Invitrogen, USA) following the manufacturer's protocol. Briefly, 5 μg of total RNA was reverse transcribed using oligo (dT) and Superscript III (Invitrogen, USA) at 50° C. for 1 hr. Two μl of the cDNA product was amplified using primers for PKC-ε (Forward Primer—[…], Reverse primer—[…]), and β-tubulin (Forward Primer—[…], Reverse primer—[…]) (Origene, Rockville, Md.) for 25 cycles following standard PCR protocols and 55° C. annealing temperature. The PCR amplicons were analyzed in an E-Gel (Invitrogen, USA). The gel image was documented using a Fuji Image gel scanner (FLA-9000, Fuji Film) and densitometric quantification was performed using the IMAL software (Blanchette Rockefeller Neurosciences Institute, Morgantown, W. Va.). Data were represented as normalized ratio of PKC-ε OD (Optical Density) against β-tubulin OD for three independent experiments.
# synaptosomes = experiment: Western blot of synaptosomes from treated cells; assay type: cell-based, human; details: RA 10 μM, Bryostatin-1 0.27 nM, 72 hr
# Procedure: Synaptosomes from undifferentiated and differentiated cells were prepared following the method described earlier (29). See Nagy et al. (1984) J Neurochem 43, 1114-1123. Briefly, the cells were washes in 1×PBS and homogenized in 10 volumes of buffer (“buffer1”) containing 0.32 M sucrose, 5 mM HEPES pH 7.2, and 0.1 mM EDTA in a Teflon homogenizer. The homogenate was centrifuged at 1000×g for 10 min to remove the nuclear fraction. The supernatant obtained was again spun at 12000×g for 20 min at 4° C. The pellet thus obtained was resuspended in 3 volumes of buffer1 and was layered on to the 16%/10%/8.5% Percoll gradient prepared from the stock isoosmotic percoll containing 9 parts 100% percoll, and 1 part 2.5 M sucrose. The preparation was centrifuged at 15000×g for 20 min at 4° C. Synaptosomes collected from the layer between 10% and 16% gradient was washed with 1×PBS and was centrifuged at 20000×g for 15 min. The purified synaptosomes were homogenized in homogenizing buffer and were subjected to western blot as described before.
# Western blot analysis was performed after 72 hr.
# [1] = rats; cited from earlier work
# [2] = system: rat hippocampal primary neurons; experiment: Synaptic marker immunofluorescence in rat hippocampal primary neurons; assay type: cell-based; details: 50 nM ASPD alone (ASPD) or with 100 nM DCPLA-ME, 20 hr
# Procedure: Cells were grown in two chambered slides (Nunc, USA) at low density. For immunofluorescence staining, the cells were washed with PBS (pH 7.4) and fixed with 4% paraformaldehyde for 4 min. Following fixation, the cells were blocked and permeabilized with 5% serum and 0.3% Triton X 100 in 1×PBS for 30 min. The cells were washed three times with 1×PBS and incubated with primary antibodies for 1 hr at 1:100 dilution. The incubation slides were then washed again three times in 1×PBS and were incubated with the FITC anti-rabbit IgG and Rhodamine anti-mouse IgG for 1 hr at 1:400 dilution. The cells were further washed and treated with DAPI (4′,6-diamidino-2′-phenylindole, dihydrochloride) (Thermo Scientific, USA) to stain the nucleus. Finally, the slides were washed and mounted in Pro Long Gold antifade mounting solution (Invitrogen, USA) and were viewed under the LSM 710 Meta confocal microscope (Zeiss) at 350 nm, 490 nm, and 540 nm excitation and 470 nm, 525 nm, and 625 nm emission for DAPI, FITC, and Rhodamine respectively. Six individual fields at 63× oil lens magnification were analyzed for the mean fluorescence intensity (MFI) in each channel. The co-localization correlation generated by the ZEN software (Zeiss).
# To estimate the synaptic damage caused by the ASPDs on primary hippocampal neurons, the expression of synaptophysin (a presynaptic marker) and PSD-95 (a postsynaptic marker) was measured by immunofluorescence staining. […] Following a 20 hr incubation period, the cells were stained for nucleus, PSD-95, and synaptophysin. Expression levels were calculated as the change of percentage in mean fluorescence intensity compared to untreated cells.
# Primary neurons, treated and untreated, were immunostained for MAP-2, synaptophysin, and PSD-95 to determine the synaptic integrity. […] Following a 20 hr incubation period, the cells were stained for MAP-2, PSD-95, and synaptophysin as described above.
# synaptophysin = experiment: Synaptophysin Western Blot in primary rat hippocampal neurons; assay type: cell-based; details: ASPD + DCPLA-ME
# Procedure: Cells were harvested in homogenizing buffer containing 10 mM Tris-Cl (pH 7.4), 1 mM PMSF (phenylmethylsulfonyl fluoride), 1 mM EGTA, 1 mM EDTA, 50 mM NaF, and 20 μM leupeptin and were lysed by sonication. The homogenate was centrifuged at 100,000×g for 15 min at 4° C. to obtain the cytosolic fraction (supernatant) and membrane (pellet). The pellet was resuspended in the homogenizing buffer by sonication. Protein concentration was measured using the Coomassie Plus (Bradford) Protein Assay kit (Pierce, USA). Following quantification, 20 μg of protein from each sample was subjected to SDS-PAGE analysis in 4-20% gradient Tris-Glycine gel (Invitrogen, USA). The separated protein was then transferred to nitrocellulose membrane. The membrane was blocked with BSA at room temperature for 15 min and was incubated with primary antibody over night at 4° C. After the incubation, it was washed three times with TBS-T (Tris Buffered saline-Tween 20) and further incubated with alkaline phosphatase conjugated secondary antibody (Jackson Immunoresearch Laboratories, USA) at 1:10,000 dilution for 45 min. The membrane was finally washed three times with TBS-T and developed using the 1-step NBT-BCIP substrate (Pierce, USA). Western Blot was imaged in the ImageQuant RT-ECL (GE Life Sciences, Piscataway, N.J.) and densitometric quantification was performed using the IMAL software (Blanchette Rockefeller Neurosciences Institute, Morgantown, W. Va.). For translocation assays, PKC activation was represented as the percentage of total protein in the membrane (membrane/cytosol+membrane).
# GSK-3β = experiment: Phospho GSK-3β (Ser-9) Western Blot in ASPD treated primary neurons; assay type: cell-based, rat; details: 50 nM ASPD + 100 nM DCPLA-ME
# Description: Phospho GSK-3β expression was normalized against total GSK-3β expression. […] Data are represented as mean±SEM. (Student's t test *. p<0.05; and **, p<0.005 n=3).
# Since GSK-3β is a key enzyme in the production of hyperphosphorylated tau protein, and phosphorylation of the Ser-9 residue causes GSK-3β inhibition, increasing phosphorylation of GSK-3β at Ser-9 by PKC could also enhance the protective effect of DCPLA-ME.
Compound,increase of mRNA level of PKC-ε (PKC-ε) [fold],increase in PKC-ε level in synaptosomes (synaptosomes) [fold],acute LD50 [1] [mg/kg],MAP-2 expression (mean fluorescence intensity) [2] [%],PSD-95 expression (mean fluorescence intensity) [2] [%],synaptophysin expression (mean fluorescence intensity) [2] [%],synaptophysin expression by Western Blot (in words) (synaptophysin),phosphorylation of Ser-9 of GSK-3β (in words) (GSK-3β)
CCC/C=C/C=C/C(=O)O[C@H]1/C(=C/C(=O)OC)C[C@H]2C[C@H]([C@@H](C)O)OC(=O)C[C@H](O)C[C@@H]3C[C@H](OC(C)=O)C(C)(C)C(O)(C[C@@H]4C/C(=C/C(=O)OC)C[C@H](/C=C/C(C)(C)[C@]1(O)O2)O4)O3 [Bryostatin-1],2,2,0.068,,,,,
"CCCCCC1CC1CC1CC1CCCCCCCC(=O)OC (stereo not drawn) [DCPLA-ME, methyl 8-(2-((2-pentylcyclopropyl)methyl)cyclopropyl)octanoate]",,,,68.87±2.0,99.2±11.3,87.48±3.75,maintained the expression similar to control,restored phosphorylation of the Ser-9 residue of GSK-3β to normal levels
"CC1=C(/C=C/C(C)=C/C=C/C(C)=C/C(=O)O)C(C)(C)CCC1 [RA, All-trans retinoic acid]",2,,,,,,,
